10 molecules from ChEMBL document CHEMBL1201862, “PubChem BioAssay data set” (2004) can be followed below.

Test systems include NCI-H23; A498; NCI/ADR-RES; COLO 205; HCT-116; SNB-19; HT-29; OVCAR-8; SN12C; RXF 393; MOLT-4; UACC-62; PC-3; OVCAR-3; ACHN; MCF7; NCI-H460; UACC-257; M14; MDA-MB-435.
What all share (experiment): NCI anticancer screen, dose series, 48 h

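Cells were grown in 96-well plates and exposed to each compound for 48 hours at five concentrations; endpoints were interpolated linearly between bracketing concentrations, or set to the highest concentration if not reached. GI50: concentration for 50% inhibition of growth.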 Activity calls are given as the source filed them. No stated cut-off is given here; in the data, active = GI50 up to about 1.1 µM and inactive = higher. Where only a bound is given, the exact number is not on record here.

Take `CCOC1OC(CO[Si](C)(C)C(C)(C)C)C(O)CC1n1ccc(=O)[nH]c1=O` (stereo not given): the GI50 in the assay on NCI-H23 was > 100 µM (inactive); in the assay with A498 it was > 100 µM (inactive); in the assay on NCI/ADR-RES, > 100 µM (inactive); with COLO 205, 80.5 µM (inactive); in the assay with HCT-116, 17.1 µM (inactive); with SNB-19, > 100 µM (inactive). Further, the GI50 in the assay on HT-29 is 47.5 µM (inactive); with OVCAR-8, 33.7 µM (inactive); in the assay on SN12C, > 100 µM (inactive); with RXF 393, 30.8 µM (inactive); with MOLT-4, 27.7 µM (inactive); in the assay with UACC-62 it was > 100 µM (inactive). Also, the GI50 in the assay with PC-3 is 64.7 µM (inactive); with OVCAR-3 it was 43.8 µM (inactive); in the assay with ACHN, > 100 µM (inactive); with MCF7, 31.5 µM (inactive); in the assay on NCI-H460, 81.3 µM (inactive); in the assay with UACC-257, > 100 µM (inactive). Also, the GI50 with M14 is 26.8 µM (inactive); in the assay with MDA-MB-435, > 100 µM (inactive).
Consider `COc1ccc2nc3cc(Cl)ccc3c(NCCNC(=O)Cn3c(=O)n(C)c(=O)c4c3nc3c(c(=O)n(C)c(=O)n3C)[n+]4[O-])c2c1`, for which the GI50 in the assay with NCI-H23 was 21.2 µM (inactive); in the assay on A498, > 60.4 µM (inactive); in the assay with NCI/ADR-RES, 38.8 µM (inactive); in the assay on COLO 205, > 67.1 µM (inactive); with HCT-116, 35.2 µM (inactive); in the assay on SNB-19, 23.9 µM (inactive). Moreover, the GI50 with HT-29 was 24.2 µM (inactive); in the assay on OVCAR-8, 2.47 µM (inactive); in the assay with SN12C it was 36.7 µM (inactive); with RXF 393, 42.1 µM (inactive); in the assay on MOLT-4, 22.9 µM (inactive); with UACC-62, > 38.3 µM (inactive). For the same molecule, the GI50 was 38.4 µM (inactive) with PC-3; 39.5 µM (inactive) with OVCAR-3; 36.8 µM (inactive) in the assay on ACHN; 33 µM (inactive) in the assay with MCF7; 44.7 µM (inactive) in the assay with NCI-H460; 32.7 µM (inactive) in the assay with UACC-257. Besides, the GI50 is > 81.8 µM (inactive) with M14 and > 45.7 µM (inactive) in the assay on MDA-MB-435.
With `CCCCc1ccc(Nc2ncc3ncn(COCCO)c3n2)cc1`, the GI50 was 27.7 µM (inactive) in the assay with NCI-H23; 46.6 µM (inactive) in the assay with A498; 29 µM (inactive) in the assay on NCI/ADR-RES; 36.1 µM (inactive) in the assay with COLO 205; 21 µM (inactive) in the assay on HCT-116; 44.3 µM (inactive) in the assay with SNB-19. The GI50 with HT-29 is 21.8 µM (inactive); with OVCAR-8, 29 µM (inactive); in the assay on SN12C it was 46.2 µM (inactive); in the assay with RXF 393, 26.8 µM (inactive); in the assay on MOLT-4, 21.6 µM (inactive); in the assay with UACC-62, 25.6 µM (inactive). Also, the GI50 is 27 µM (inactive) in the assay with PC-3; 22.8 µM (inactive) with OVCAR-3; 26.1 µM (inactive) with ACHN; 28.5 µM (inactive) with MCF7; 22.4 µM (inactive) with NCI-H460; 27.9 µM (inactive) in the assay on UACC-257. The GI50 in the assay with M14 is 21.5 µM (inactive); in the assay with MDA-MB-435 it was 29.4 µM (inactive).
On to `CCN(CC)Cc1ccc(Nc2c3ccccc3nc3ccccc23)cc1`, for which the GI50 is 1.99 µM (inactive) in the assay on NCI-H23; 3.09 µM (inactive) in the assay on A498; 5.48 µM (inactive) in the assay on NCI/ADR-RES; 1.71 µM (inactive) with COLO 205; 1.16 µM (inactive) with HCT-116; 1.35 µM (inactive) in the assay on SNB-19. In addition, the GI50 is 1.91 µM (inactive) in the assay with HT-29; 3.05 µM (inactive) in the assay on OVCAR-8; 2.31 µM (inactive) in the assay with SN12C; 1.72 µM (inactive) in the assay on RXF 393; 0.955 µM (active) with MOLT-4; 1.81 µM (inactive) in the assay with UACC-62. The GI50 is 1.59 µM (inactive) in the assay on PC-3; 3.03 µM (inactive) in the assay on OVCAR-3; 0.364 µM (active) in the assay on ACHN; 1.71 µM (inactive) in the assay with MCF7; 1.19 µM (inactive) with NCI-H460; 1.71 µM (inactive) in the assay on UACC-257. In addition, the values for the GI50 with M14 and in the assay on MDA-MB-435 were 1.77 µM (inactive) and 2.04 µM (inactive), respectively.
Take `CC1CC2OC(=O)C(C)C2CC2(C)C(OC3OC(CO)C(O)C(O)C3O)OCCC12` (stereo not given): the GI50 with NCI-H23, in the assay with A498, in the assay on NCI/ADR-RES, with COLO 205, with HCT-116 and with SNB-19 was > 100 µM (inactive) throughout. The GI50 with HT-29 is > 100 µM (inactive); with OVCAR-8, > 100 µM (inactive); with SN12C, > 100 µM (inactive); in the assay on RXF 393, > 100 µM (inactive); in the assay with MOLT-4 it was > 100 µM (inactive); in the assay with UACC-62 it was 16.9 µM (inactive). For the same molecule, the GI50 in the assay with PC-3, with OVCAR-3, in the assay with ACHN, with MCF7, in the assay with NCI-H460 and in the assay with UACC-257 was > 100 µM (inactive) each time. For the same molecule, the GI50 in the assay with M14 and with MDA-MB-435 was > 100 µM (inactive) throughout.
On to `COC(=O)C(CSSC[C@H](N/C(C)=C/C(C)=O)C(=O)OC)N/C(C)=C/C(C)=O` (stereo not given in full), for which the GI50 is > 100 µM (inactive) in the assay on NCI-H23; > 100 µM (inactive) in the assay with A498; > 100 µM (inactive) in the assay with NCI/ADR-RES; > 100 µM (inactive) in the assay on COLO 205; 27 µM (inactive) with HCT-116; > 100 µM (inactive) in the assay with SNB-19. The GI50 with HT-29 was 38.7 µM (inactive); with OVCAR-8, < 0.01 µM (active); with SN12C, 48.8 µM (inactive); with RXF 393, 15.1 µM (inactive); in the assay with MOLT-4, 32.3 µM (inactive); in the assay with UACC-62 it was 64.4 µM (inactive). The GI50 is 54.1 µM (inactive) with PC-3; 4.17 µM (inactive) with OVCAR-3; < 0.01 µM (active) with ACHN; 26.9 µM (inactive) in the assay with MCF7; > 100 µM (inactive) with NCI-H460; 32.7 µM (inactive) with UACC-257. The values for the GI50 in the assay with M14 and in the assay on MDA-MB-435 were 30.8 µM (inactive) and 74.5 µM (inactive), respectively.
Take `CC(C)(C)[Si](C)(C)Oc1ccc(C2CNC(=O)C23CCC(=O)N3Cc2ccccc2)cc1` (stereo not given): the GI50 in the assay with NCI-H23 was 11.4 µM (inactive); in the assay on A498 it was 12.2 µM (inactive); with NCI/ADR-RES, 12.8 µM (inactive); with COLO 205, 11.7 µM (inactive); with HCT-116, 22.2 µM (inactive); with SNB-19 it was 15 µM (inactive). Moreover, the GI50 was 12.2 µM (inactive) with HT-29; 12.6 µM (inactive) in the assay with OVCAR-8; 15 µM (inactive) in the assay on SN12C; 10.7 µM (inactive) in the assay with RXF 393; 6.14 µM (inactive) in the assay on MOLT-4; 15.2 µM (inactive) in the assay on UACC-62. For the same molecule, the GI50 was 15.2 µM (inactive) in the assay with PC-3; 12.5 µM (inactive) with OVCAR-3; 15 µM (inactive) in the assay on ACHN; 4.54 µM (inactive) in the assay on MCF7; 7.14 µM (inactive) with NCI-H460; 12.4 µM (inactive) in the assay with UACC-257. In addition, the GI50 with M14 was 16.4 µM (inactive); in the assay on MDA-MB-435 it was 12.4 µM (inactive).
In the case of `Cn1c([N+](=O)[O-])cnc1CN1CCN(CCO)CC1`, the GI50 with NCI-H23, with A498, with NCI/ADR-RES, in the assay with COLO 205, in the assay on HCT-116 and in the assay on SNB-19 was > 100 µM (inactive) throughout. Moreover, the GI50 in the assay with HT-29, in the assay with OVCAR-8, with SN12C, in the assay with RXF 393, in the assay with MOLT-4 and with UACC-62 was > 100 µM (inactive) throughout. Further, the GI50 with PC-3, in the assay with OVCAR-3, with ACHN, in the assay with MCF7, in the assay with NCI-H460 and with UACC-257 was > 100 µM (inactive) each time. The GI50 in the assay with M14 and in the assay with MDA-MB-435 was > 100 µM (inactive) each time.
For `CC1(CC(=O)O)OC2CCCCCC2O1.NCc1ccccc1` (stereo not given), the GI50 in the assay on NCI-H23 is > 100 µM (inactive); in the assay with A498 it was > 100 µM (inactive); with NCI/ADR-RES it was > 100 µM (inactive); in the assay on COLO 205, > 100 µM (inactive); with HCT-116, 74.8 µM (inactive); in the assay on SNB-19, > 100 µM (inactive). Further, the GI50 in the assay on HT-29 was 64.1 µM (inactive); with OVCAR-8, > 100 µM (inactive); with SN12C it was > 100 µM (inactive); in the assay with RXF 393 it was > 100 µM (inactive); in the assay with MOLT-4, > 100 µM (inactive); with UACC-62 it was > 100 µM (inactive). Besides, the GI50 in the assay on PC-3 was > 100 µM (inactive); in the assay with OVCAR-3 it was > 100 µM (inactive); with ACHN, > 100 µM (inactive); in the assay on MCF7, > 100 µM (inactive); in the assay on NCI-H460, > 100 µM (inactive); with UACC-257 it was 53.5 µM (inactive). In addition, the GI50 with M14 and with MDA-MB-435 was > 100 µM (inactive) in each case.
For the molecule `CC(=O)OC12CC(C(F)(F)F)(C(F)(F)F)OC1(OC(C)=O)CC(C(F)(F)F)(C(F)(F)F)O2` (stereo not given), the GI50 was 1.23 µM (inactive) with NCI-H23; 2.14 µM (inactive) in the assay on A498; 10.9 µM (inactive) with NCI/ADR-RES; 3.95 µM (inactive) with COLO 205; 3.66 µM (inactive) in the assay with HCT-116; 3.15 µM (inactive) in the assay on SNB-19. For the same molecule, the GI50 was 5.28 µM (inactive) in the assay on HT-29; 2.71 µM (inactive) in the assay on OVCAR-8; 4.66 µM (inactive) in the assay on SN12C; 11.5 µM (inactive) in the assay on RXF 393; 1.06 µM (active) in the assay on MOLT-4; 2.66 µM (inactive) in the assay with UACC-62. The GI50 in the assay with PC-3 was 0.805 µM (active); with OVCAR-3, 2.02 µM (inactive); with ACHN, 0.287 µM (active); in the assay with MCF7, 0.426 µM (active); in the assay with NCI-H460 it was 4.05 µM (inactive); with UACC-257 it was 3.13 µM (inactive). For the same molecule, the GI50 in the assay with M14 is 3.72 µM (inactive); in the assay with MDA-MB-435, 2.13 µM (inactive).
